Structures are written as SMILES. Several values for one entry are separate records, joined by “and”; a condition that tells them apart may be missing. Equal entries are not always repeated.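 Protocol summary: plate cells (96-well), add compound at 5 concentrations, incubate 48 h, interpolate endpoints linearly. GI50: concentration for 50% inhibition of growth. TGI is the concentration that stops growth completely.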

Among the test systems are IGROV1 ovarian; MCF7 breast; K-562 leukemia; NCI-H522 lung; PC-3 prostate; HCT-15 colon; 786-0 renal; SF-268 CNS; MDA-MB-231 breast; CAKI-1 renal; BT-549 breast; SF-539 CNS; HCC-2998 colon.
What all share (experiment): growth of human tumour cells (NCI), 48 h

As to `CSC1=N/C(=C\c2ccc(Cl)cc2)C(=O)N1CN1CCCCC1`, the TGI with IGROV1 ovarian was 93.2 µM; in the assay with MCF7 breast, 82.8 µM; with K-562 leukemia it was > 100 µM; with NCI-H522 lung, > 100 µM; with PC-3 prostate it was > 100 µM; with HCT-15 colon, > 100 µM. The TGI with 786-0 renal, in the assay on SF-268 CNS and in the assay with MDA-MB-231 breast was > 100 µM in each case.

Consider `N#CC12C(=O)NC(=O)C1(C#N)C1C=CC2CC1` (centres undefined), for which the TGI in the assay with MCF7 breast, in the assay with NCI-H522 lung, with PC-3 prostate, in the assay with CAKI-1 renal, with HCT-15 colon and in the assay with 786-0 renal was > 100 µM each time. Further, the TGI in the assay on SF-268 CNS, with BT-549 breast and with SF-539 CNS was > 100 µM each time.

`Cc1c(C)c2ccc(OCC(O)COC(C)C)c(C)c2oc1=O` (centres undefined): the TGI in the assay on IGROV1 ovarian was > 100 µM; in the assay on MCF7 breast, 50.1 µM; in the assay on K-562 leukemia, 71.4 µM; in the assay with NCI-H522 lung, 45.8 µM; in the assay with PC-3 prostate, > 100 µM; with CAKI-1 renal it was > 100 µM. The TGI is > 10 µM with 786-0 renal, > 100 µM in the assay with SF-268 CNS and 43.4 µM with HCC-2998 colon.

Consider `COc1ccc(C(c2ccccc2)(c2ccc(OC)cc2)N2C(=O)NC3C(CCCCC(=O)NCCCCCCOP(OCCC#N)N(C(C)C)C(C)C)SCC32)cc1` (centres undefined), for which the TGI is 40.3 µM in the assay with IGROV1 ovarian; 32.2 µM in the assay with K-562 leukemia; 27.3 µM with NCI-H522 lung; 35.6 µM in the assay on HCT-15 colon; 35.9 µM in the assay on 786-0 renal; 30.6 µM with SF-268 CNS. In addition, the TGI with SF-539 CNS worked out at 28.1 µM; in the assay on HCC-2998 colon it was 31.6 µM.

As for `CC1=C(C(=O)OC2CC3CCC2(C)C3(C)C)C2Nc3ccccc3N(C)C2O1` (centres undefined), the TGI was 6.97 µM with IGROV1 ovarian; > 29.4 µM with K-562 leukemia; 4.02 µM in the assay on NCI-H522 lung; 12.3 µM in the assay on PC-3 prostate; 10.5 µM in the assay on CAKI-1 renal; 5.6 µM in the assay with HCT-15 colon. Besides, the TGI stood at 9.09 µM in the assay with 786-0 renal; 22.5 µM in the assay with SF-268 CNS; 6.43 µM with BT-549 breast; 16.9 µM in the assay with MDA-MB-231 breast; 3.91 µM with HCC-2998 colon.

For `CC(C)(O)C(O)COc1c2c(cc3oc(=O)ccc13)OCO2` (centres undefined), the TGI with IGROV1 ovarian, in the assay with K-562 leukemia, with NCI-H522 lung, in the assay with CAKI-1 renal, in the assay on HCT-15 colon and in the assay on 786-0 renal was > 100 µM each time. Further, the TGI in the assay with SF-268 CNS, in the assay with SF-539 CNS and in the assay with HCC-2998 colon was > 100 µM in each case.

For the compound `CSc1nc(-c2ccc(Cl)cc2)c(C#N)c(=O)n1C1OC(COC(C)=O)C(OC(C)=O)C(OC(C)=O)C1OC(C)=O` (centres undefined), the TGI is > 100 µM in the assay on IGROV1 ovarian; > 100 µM in the assay with K-562 leukemia; 29.2 µM and > 100 µM in the assay with NCI-H522 lung; > 100 µM in the assay with CAKI-1 renal; > 100 µM in the assay with HCT-15 colon; > 100 µM with 786-0 renal. Moreover, the TGI was 55.2 µM and > 100 µM in the assay on SF-268 CNS; 31.6 µM and > 100 µM in the assay on SF-539 CNS; > 100 µM with HCC-2998 colon. Besides, the GI50 with NCI-H522 lung is 12.1 µM and > 100 µM; in the assay on SF-268 CNS, 12.4 µM and > 100 µM; in the assay with SF-539 CNS it was 15.2 µM and > 100 µM.

With `COc1ccccc1Nc1nc2c([nH]1)c(=O)n(C)c(=O)n2C`, the TGI in the assay with IGROV1 ovarian, with MCF7 breast, in the assay with K-562 leukemia, with PC-3 prostate, with CAKI-1 renal and with HCT-15 colon was > 10 µM in each case. Further, the TGI with 786-0 renal, in the assay with SF-268 CNS, in the assay with MDA-MB-231 breast and in the assay with HCC-2998 colon was > 10 µM each time.

Turning to `CC(C)CC(NC(=O)C(C)(CI)Cc1ccccc1)C(=O)Nc1ccccc1` (centres undefined), the TGI in the assay with IGROV1 ovarian, in the assay with MCF7 breast, in the assay on K-562 leukemia, in the assay with NCI-H522 lung, with PC-3 prostate and in the assay with CAKI-1 renal was > 100 µM each time. The TGI with HCT-15 colon, with 786-0 renal, in the assay on SF-539 CNS, in the assay with MDA-MB-231 breast and in the assay on HCC-2998 colon was > 100 µM in each case.

For `O=C(Nc1ccc(C(F)(F)F)cc1)NC(F)(F)F`, the TGI in the assay with IGROV1 ovarian, with K-562 leukemia, in the assay on PC-3 prostate, with CAKI-1 renal, in the assay on HCT-15 colon and with 786-0 renal was > 100 µM throughout. The TGI with SF-268 CNS, with BT-549 breast, in the assay with SF-539 CNS and in the assay with HCC-2998 colon was > 100 µM throughout.

As to `COc1cccc2c1c1ccc3c(c1n2C)C(=O)C=CC3=O`, the TGI in the assay with IGROV1 ovarian is > 100 µM; in the assay on K-562 leukemia, > 100 µM; with NCI-H522 lung, 14.7 µM; in the assay on CAKI-1 renal, 11.6 µM; in the assay with HCT-15 colon, 31.8 µM; in the assay on 786-0 renal, 31.4 µM. The TGI with SF-268 CNS was 33.6 µM; with SF-539 CNS, 30.9 µM; in the assay on HCC-2998 colon it was > 100 µM.

Regarding `CSc1ncnc2c1ncn2CCC(=O)O`, the TGI with IGROV1 ovarian, with MCF7 breast, with K-562 leukemia, in the assay with NCI-H522 lung, with PC-3 prostate and with CAKI-1 renal was > 100 µM each time. The TGI in the assay on 786-0 renal, in the assay with SF-268 CNS, with SF-539 CNS and in the assay with MDA-MB-231 breast was > 100 µM in each case.

`CC1CC(N)=C(C#N)C1(C#N)C#N` (centres undefined): the TGI was > 100 µM in the assay with IGROV1 ovarian; > 100 µM in the assay on MCF7 breast; > 100 µM in the assay on K-562 leukemia; > 100 µM in the assay on NCI-H522 lung; > 100 µM in the assay with PC-3 prostate; 59.7 µM in the assay on CAKI-1 renal. Besides, the TGI in the assay with HCT-15 colon, in the assay on 786-0 renal, in the assay on SF-268 CNS, with SF-539 CNS, in the assay with MDA-MB-231 breast and with HCC-2998 colon was > 100 µM throughout.

Source of the values: PubChem BioAssay (NCI).
